Read-outs that look alike come from different tables or passages of the source.
Columns and labels:
[1] = system: Leptosphaeria nodorum (LEPTNO); test: In vitro fungitoxicity of hydrazones with and without copper towards Leptosphaeria nodorum (Example 26); type: cell-based; settings: 72 h at 25° C.; for inhibition of growth at 0.05 µg/mL: Parastagonospora nodorum, 72 h, copper-minus medium, read-out: LEPTNO % Inhn. Minus Copper Observed
[2] = system: Phytophthora infestans; type: in vivo, Phytophthora infestans on tomato; settings: applied 24 h before inoculation, assessed 7 days after inoculation
[3] = test compound Concn. 0.05 μg/mL
[4] = copper-plus medium (CuCl2 10 μM), test compound Concn. 0.05 μg/mL
[5] = hydrazone 50 ppm with 50 μM CuCl2.2H2O, tomato late blight
[6] = compound 0.05 μg/mL, copper-plus medium (CuCl2.2H2O)
[7] = hydrazone 50 ppm + 50 μM CuCl2.2H2O, tomato

Compound | inhibition of growth at 0.05 µg/mL [1, 3] [%] | LEPTNO % Inhn. Plus Copper Observed [1, 4] [%] | melting point [°C] | TLB % Control [2, 5] [%] | inhibition of growth at 0.05 µg/mL ([1]; compound 0.05 μg/mL) [%] | LEPTNO % Inhn. Plus Copper Observed [1, 6] [%] | TLB % Control [2, 7] [%]
COc1ccc(/C(C)=N/NC(=O)c2ccccc2Cl)c(O)c1OC [Example 555] | 3.7 | 92.5 | 77 to 86 | 46.0 |  |  | 
Cc1cccc(C(=O)N/N=C/c2cc(Cl)cc(Cl)c2O)c1O [Example 73] |  |  | 202 to 209 |  | 8.6 | 98.0 | 87.3
COc1ccc(O)c(/C(C)=N/NC(=O)c2cccc(Cl)c2)c1 [Example 266] |  |  | 190 to 201 |  | 4.5 | 95.4 | 28.0
O=C(N/N=C/c1cccc(Cl)c1O)c1ccccc1C(F)(F)F [Example 432] | 0 | 95.9 | 118 to 121 | 72.0 |  |  | 
C/C(=N\NC(=O)c1cccc(Br)c1)c1cc(Cl)cc(Cl)c1O [Example 138] |  |  | 247 to 253 |  | 4 | 98.1 | 91.0
O=C(N/N=C/c1c(C(F)(F)F)ccc(Cl)c1O)c1cccc([N+](=O)[O-])c1 [Example 453] | 5.6 | 100.0 | 277 to 279 | 100.0 |  |  | 
C/C(=N\NC(=O)c1ccc(Br)cc1)c1cccc([N+](=O)[O-])c1O [Example 522] | 9.4 | 97.3 | 244 to 252 | 95.0 |  |  | 
Cc1cccc(C(=O)N/N=C/c2c(O)cccc2Cl)c1 [Example 398] | 5.4 | 94.7 | 245 to 248 | 98.0 |  |  | 
O=C(N/N=C/c1c(Cl)ccc(Cl)c1O)c1cccc([N+](=O)[O-])c1 [Example 371] | 12.6 | 96.1 | 273 to 277 | 98.0 |  |  | 
CCOc1cccc(C(=O)N/N=C/c2cc(Cl)cc(Cl)c2O)c1 [Example 86] |  |  | 207 to 209 |  | 0.3 | 97.6 | 80.7
CC/C(=N\NC(=O)c1ccccc1)c1cc(Cl)cc(Cl)c1O [Example 590] | 10 | 98.6 | 214 to 215 | 88.0 |  |  | 
O=C(N/N=C/c1c(Cl)ccc(Cl)c1O)c1ccccc1 [Example 247] |  |  | 204 to 205 |  | 10.1 | 94.0 | 84.7
O=C(N/N=C/c1cc(Cl)cc(C(F)(F)F)c1O)c1ccccc1C(F)(F)F [Example 385] | 5.4 | 94.6 | 203 to 204 | 100.0 |  |  | 
Cc1ccc(C(=O)N/N=C/c2cc(C(F)(F)F)cc(C(F)(F)F)c2O)cc1 [Example 333] | 16.2 | 93.2 | 274 to 277 | 85.0 |  |  | 
COc1cccc(/C(C)=N/NC(=O)c2ccccc2O)c1O [Example 468] | 6.2 | 98.1 | 255 to 257 | 92.0 |  |  | 
O=C(N/N=C/c1c(C(F)(F)F)ccc(Cl)c1O)c1ccccc1 [Example 319] | 18.1 | 96.6 | 216 to 218 | 78.0 |  |  | 
O=C(N/N=C/c1cc(C(F)(F)F)cc(Cl)c1O)c1ccc([N+](=O)[O-])cc1 [Example 328] | 0 | 95.1 | 253 to 255 | 99.0 |  |  | 
O=C(N/N=C/c1cc(Cl)cc(Cl)c1O)c1cccc(OC(F)(F)F)c1 [Example 250] |  |  | 180 to 182 |  | 8.7 | 98.1 | 97.0
COc1ccc(C(=O)N/N=C(\C)c2cc(F)cc(F)c2O)cc1 [Example 579] | 0 | 97.6 | 243 to 247 | 97.0 |  |  | 
O=C(N/N=C/c1cc(C(F)(F)F)cc(Cl)c1O)c1cccc(F)c1 [Example 323] | 16.1 | 98.1 | 210 to 212 | 100.0 |  |  | 

Source: patent US20120010075A1 (priority 2009, published 2012)
